# Reference: publication PMC2628309 (Journal of the American Chemical Society, 2008)
# Like-named read-outs stand apart in the source and are kept apart here.
# Experiments:
# Src tyrosine kinase [1] = target: T1, Src tyrosine kinase (Homo sapiens, UniProt P12931); test: Src kinase inhibition; assay type: biochemical
# SH2 domain = conditions: validated SH2 domain ligand; cited from earlier work
# Src tyrosine kinase [2] = target: T1, Src tyrosine kinase; conditions: cited from earlier work
# [3] = Table 1, Src inhibitors, pre-photolysis
IC50 (Src tyrosine kinase [1]; [3]) [nM],Substance,other results
1600,Ba-EEEIFGEF-Dap(Hna)-βA-III-βA-pY-III-EIEX [Compound 10],–
–,Ac-pTyrGluGluIle-amide,Kd (SH2 domain): 1000 to 5000 nM
7500,Ba-EEEIFGE-III-Dap(Hna)-βA3-pY-III-EIEX [Compound 9],–
220 ± 10,Ba-EEEIFGE-II-Dap(Hna)-βA3-pYEEIEX [Compound 7],–
18 ± 5,Ba-EEEIFGEF-Dap(Hna)-βA-III-βA-pYEEIEX [Compound 6],"Src kinase activity in the presence of inhibitor (Src tyrosine kinase [1]; 1.9 μM inhibitor, no irradiation): completely blocked; IC50 (Src tyrosine kinase [1]; in the presence of 320 μM Ac-pTyrGluGluIle-amide (SH2 ligand competition)): 325 ± 60 nM"
56 ± 4,Ba-EEEIFGEF-Dap(Hna)C-III-βA-pYEEIE-NH2 [Compound 11],–
115 ± 9,Ba-EEEIFGEF-Dap(Hna)-βA-I-βA-pYEEIEX [Compound 4],–
–,Ba-EEEIFGEF-Dap(Hna)-βA3-pYEEIEX [Compound 1],IC50 (Src tyrosine kinase [2]): 36 ± 2 nM; Ki (Src tyrosine kinase [2]): 26 ± 4 nM
38 ± 4,Ba-EEEIFGEF-Dap(Hna)-βA-II-βA-pYEEIEX [Compound 5],–
